The values that follow come from patent US20160331742A1, “TREATMENT OF CROHN'S DISEASE USING LOW DOSES OF LAQUINIMOD” (Teva Pharmaceutical Industries, Ltd., priority 2014, published 2016).

Data set [1] concerns subjects suffering from active moderate to severe Crohn's disease. As to the kind of experiment: Phase III randomized, double-blind, placebo-controlled 52-week maintenance of remission study of laquinimod in Crohn's disease patients. Type of data set: in vivo, human. Conditions: 0.25 mg/day oral vs 0.5 mg/day, Example 2. As to the method:
A phase III, randomized, double-blind, placebo-controlled 52-week maintenance of remission study of laquinimod is conducted in Crohn's disease patients.
One or more capsules containing laquinimod 0.25 mg, laquinimod 0.5 mg, or matching placebo are administered orally once daily (QD)
Patients with a Response at Week 12 in any of the induction studies, TV5500-IMM-30009, TV5600-IMM-30012, or TV5500-IMM-10013, are re-randomized into this placebo-controlled maintenance study. Response at Week 12 in those induction studies is defined as a Crohn's Disease Activity Index (CDAI) reduction of at least 10 points from Baseline at Week 12. No new patients are included in this maintenance study. […]
Ileonclonoscopy is performed at Baseline Week 12b Visit from the induction study) and Week 52 to directly assess endoscopic disease and mucosal healing. The timing of the ileocolonoscopy is arranged so that it takes place after the final day on which data is recorded for the Week 52 CDAI assessment, and allows time for adequate ileocolonoscopy preparation; consequently, the Week 52 ileocolcnoscopy is performed separately from but within 7 days of) the other Week 52 assessments each endosoopy is recorded, read, and scored by a central reader for an endoscopic score of cDEIS, and mucosal healing determination, […]

Data set [2] has the same test system. The data set can be described thus: Phase III open-label 64-week induction and maintenance study of laquinimod in Crohn's disease patients. Type of data set: in vivo, human. Conditions: 0.25 mg/day oral vs 0.5 mg/day, Example 3. The procedure: A phase III, randomized, open-label 64-week induction and maintenance study of laquinimod is conducted in Crohn's disease patients,
One capsule containing laquinimod 0.25 mg or laquinimod 0.5 mg is administered orally once daily at the same hour:
Response at Week 12 in those induction studies is defined as a Crohn's Disease Activity Index (COAT) reduction, of at least 70 points from Baseline. It is anticipated that many non-responders received placebo in the induction studies, so that TV5600-IMM-30011 is their first opportunity to be exposed to any dose of laquinimod. No new patients are included in this study.
Treatment duration is up to 64 weeks. The initial phase of the treatment duration is 12 weeks. Scheduled in-clinic visits are conducted at Baseline (Week 0, Visit 1) and at Weeks 2, 4, 8, and 12. The Baseline visit (Week 0, Visit 1) for this study is the same as the Week 12 visit in the relevant induction study (i.e., not an additional visit). Some additional procedures may be performed on this day, as a part of the TV5600-114M-30011 protocol but not the induction study protocol. Unscheduled visits for safety or for any other reason are conducted at any time during the study. At Week 12 (and at subsequent visits), patients undergo a clinical assessment and are offered either release from the study or continuation of maintenance therapy at the existing dose. […]

Data set [3] has the same test system. As to the kind of experiment: Phase III randomized, double-blind, placebo-controlled study of oral laquinimod in active moderate to severe Crohn's disease (12 weeks). To be noted: 0.25 mg/day oral vs 0.5 mg/day, Example 1. Format: in vivo, human. The procedure: A phase III, multicenter, randomized, double-blind, placebo-controlled study is conducted to evaluate Laquinimod in active moderate to severe Crohn's disease. There are ˜540 Crohn's disease patients enrolled, divided into 3 arms of ˜180 patients, randomized in a […] ratio (˜180 subjects on laquinimod 0.25 mg, ˜180 on laquinimod 0.5 mg, and ˜180 on placebo). One or more capsules containing laquinimod 0.25 mg, laquinimod 0.5 mg, or matching placebo are administered orally once daily; A loading dose regimen of double the maintenance/intended dose is given during the first two days of study drug treatment. Thereafter, starting on day 3, the daily maintenance/intended dose is administered. Patients with moderate to severe Crohn's disease (CD), as determined by a Crohn's Disease Activity Index (CDM) score of 220-450 (inclusive) and evidence of active endoscopic inflammatory disease, based on Crohn's Disease Endoscopic index of Severity (CDEIS) score >6 points. […] The timing of the ileocelonosoopy is arranged so that it takes place after the last day on which data are recorded for the CDAI assessment. […] Each endoscopy is recorded, and then read and scored by a central reader for endoscopic scores of CDEIS and SES-CD. […]

For data set [4] the following is noted: cited from earlier work.

For the molecule `CCN(C(=O)c1c(O)c2c(Cl)cccc2n(C)c1=O)c1ccccc1` [laquinimod], in data set [1], the “adverse effects of 0.25 mg/day as compared to 0.5 mg/day” value is recorded as “maintaining or reducing adverse effects” and the “efficacy of 0.25 mg/day as compared to 0.5 mg/day (symptoms, clinical response, remission, CDAI, CDEIS, mucosal healing, CRP, fecal calprotectin, IBDQ, WPAI:CD, EQ-5D)” value was “at least as effective, or more effective”. Moreover, in data set [2], the “adverse effects of 0.25 mg/day as compared to 0.5 mg/day” value is reported as “maintaining or reducing adverse effects” and the “efficacy of 0.25 mg/day as compared to 0.5 mg/day (symptoms, clinical response, remission, CDAI, CRP, fecal calprotectin, IBDQ, WPAI:CD, EQ-5D)” value is given as “at least as effective, or mare effective”. For the same molecule, in data set [3], the “adverse effects of 0.25 mg/day as compared to 0.5 mg/day” value was “maintaining or reducing adverse effects” and the “efficacy of 0.25 mg/day as compared to 0.5 mg/day (symptoms, clinical response, remission, CDAI, CDEIS, mucosal healing, CRP, fecal calprotectin, IBDQ, WPAI:CD, EQ-5D)” value was “at least as effective, or more effective”. In data set [4], the oral bioavailability entry is listed as “high”.
